The values below come from article PMC11330772, “Unveiling the kinetic versatility of aryl-alcohol oxidases with different electron acceptors” (Frontiers in Bioengineering and Biotechnology, 2024).

Assay [1] deals with T1, PeAAO (Pleurotus eryngii, UniProt O94219). Kind of assay: Redox state of the enzyme during turnover (stopped-flow). The assay is classed as biochemical. The settings on record: BQ as electron acceptor, regardless of the alcohol substrate, anaerobic, pH 6.0, 25 °C. The method, then: Experiments with O2 were performed with the alcohol under air-saturated conditions, while in the case of BQ, the alcohol was mixed with saturating concentration of BQ (300 µM) under anaerobic conditions. The spectral evolution of the enzymes during redox turnover was recorded between 350 and 700 nm.
T1 sequence (O94219 entry or part of it): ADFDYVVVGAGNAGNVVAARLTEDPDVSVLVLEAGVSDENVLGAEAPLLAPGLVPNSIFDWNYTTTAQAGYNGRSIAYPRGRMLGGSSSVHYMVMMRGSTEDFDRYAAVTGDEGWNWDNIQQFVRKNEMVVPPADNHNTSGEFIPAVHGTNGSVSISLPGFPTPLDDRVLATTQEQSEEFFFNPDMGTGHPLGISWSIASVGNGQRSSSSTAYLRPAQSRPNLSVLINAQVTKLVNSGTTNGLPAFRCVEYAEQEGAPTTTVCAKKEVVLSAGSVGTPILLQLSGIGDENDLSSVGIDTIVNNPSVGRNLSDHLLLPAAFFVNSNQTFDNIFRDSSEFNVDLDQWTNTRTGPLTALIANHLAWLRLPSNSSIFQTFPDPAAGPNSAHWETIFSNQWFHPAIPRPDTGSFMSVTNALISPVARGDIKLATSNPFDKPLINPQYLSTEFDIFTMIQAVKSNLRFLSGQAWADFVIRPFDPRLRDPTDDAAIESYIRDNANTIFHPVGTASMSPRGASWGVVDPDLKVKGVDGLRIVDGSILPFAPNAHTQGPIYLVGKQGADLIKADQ

Assay [2] deals with T2, BaAAO (Bjerkandera adusta, UniProt A0ABF7PQ87). Kind of assay: Isothermal titration calorimetry with BQ. The assay is classed as binding. The method, then:
(§1) The interaction parameters of the enzymes with BQ were determined using an Auto-ITC200 high-sensitivity microcalorimeter (MicroCal, Malvern-Panalytical) thermostatted at 25 °C. Enzyme solutions (∼6 μM for BaAAO and 15 μM for PeAAO) were titrated with BQ (∼50 µM for BaAAO and ∼100 μM for PeAAO) in 50 mM Tris/HCl, pH 7.0. Up to 19 injections of 2 µL were programmed with enough time spacing for the signal to recover the baseline. The association constant (K a), the enthalpy change (ΔH) and the apparent stoichiometry (n) were estimated through non-linear regression of the experimental data using a model for one binding site implemented in Origin (Origin 7.0, OriginLab). The dissociation constant (K d), the Gibbs energy change (ΔG), and the entropy change (–TΔS) were obtained from basic thermodynamic relationships.
In general terms: ITC needs no label: the signal is the heat of the interaction.

Assay [3] deals with T1, PeAAO. Put plainly: Isothermal titration calorimetry with BQ. The assay is classed as binding. As for the experimental part: as §1
Assay [4] deals with T1, PeAAO. Kind of assay: Stopped-flow oxidative half-reaction (flavin reoxidation by O2 or BQ). The settings on record: for second phase of reoxidation (k ox B→C): two-step model.
The target in assay [5] is T2, BaAAO. Kind of assay: Redox state of the enzyme during turnover (stopped-flow). The assay is classed as biochemical. The following applies: BQ as electron acceptor, both alcohols, anaerobic, pH 6.0, 25 °C.
In assay [6] the target is T1, PeAAO. Details: method as in Ferreira et al. (2023). The following applies: alcohol substrate 4-methoxybenzyl alcohol, 50 mM phosphate, pH 6.0, 25 °C, ref Ferreira et al. (2023); cited from earlier work.
The target in assay [7] is T2, BaAAO. Details: method as in Ferreira et al. (2023). The settings on record: alcohol substrate 4-methoxybenzyl alcohol, 50 mM phosphate, pH 6.0, 25 °C, ref Ferreira et al. (2023); cited from earlier work.
Assay [8] addresses T2, BaAAO. Put plainly: Steady-state bi-substrate kinetics of alcohol oxidation. The assay is classed as biochemical. The following applies: BaAAO, alcohol substrate 3-Cl-4-methoxybenzyl alcohol; 50 mM phosphate, pH 6.0, 25 °C. As for the experimental part:
(§2) Bi-substrate kinetics were analyzed by concurrently varying the concentration of the aforementioned alcohols and electron acceptors. Oxygen assays were carried out in a screw-cap cuvette where the alcohol was equilibrated with the desired concentration of O2 by bubbling with the appropriate O2/N2 gas mixture (4%, 10%, 21%, 44%, and 100% O2) for 10 min. Alcohol oxidation was initiated by the addition of the enzyme and followed at 285 nm for 4-methoxybenzaldehyde production and 295 nm in the case of 3-Cl-4-methoxybenzaldehyde (Δε285 = 16,950 M^−1cm^−1 and Δε295 = 15,000 M^−1cm^−1, respectively) ([Ferreira et al., 2005]). […]. BQ solutions were prepared immediately prior to use and protected from the light to avoid photodegradation.
(§3) The initial rates for bi-substrate kinetics were fitted to Eq. 1 or Eq. 2, which describe sequential and ping-pong kinetic mechanisms, respectively. […]

In assay [9] the target is T1, PeAAO. The description is as above. The assay is classed as biochemical. The following applies: alcohol substrate 3-Cl-4-methoxybenzyl alcohol, 50 mM phosphate, pH 6.0, 25 °C. The method, then: as §2, §3

Read-outs that look alike come from different tables or passages of the source.

T2 sequence (A0ABF7PQ87 entry or part of it): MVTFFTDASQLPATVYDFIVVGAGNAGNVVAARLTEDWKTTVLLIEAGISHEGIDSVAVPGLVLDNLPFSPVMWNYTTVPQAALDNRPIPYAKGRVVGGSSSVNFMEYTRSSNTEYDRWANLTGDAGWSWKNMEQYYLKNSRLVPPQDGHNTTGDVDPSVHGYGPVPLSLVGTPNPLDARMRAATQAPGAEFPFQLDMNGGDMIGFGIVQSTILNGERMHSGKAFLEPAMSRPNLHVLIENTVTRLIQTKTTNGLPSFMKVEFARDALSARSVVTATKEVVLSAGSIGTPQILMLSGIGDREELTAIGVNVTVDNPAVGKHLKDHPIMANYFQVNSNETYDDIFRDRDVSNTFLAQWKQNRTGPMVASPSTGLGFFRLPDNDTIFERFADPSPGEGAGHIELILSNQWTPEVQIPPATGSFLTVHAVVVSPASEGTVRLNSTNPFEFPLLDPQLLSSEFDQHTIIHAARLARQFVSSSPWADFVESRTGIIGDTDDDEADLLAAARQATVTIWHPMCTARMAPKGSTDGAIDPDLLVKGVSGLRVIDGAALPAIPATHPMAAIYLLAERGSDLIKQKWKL

As to `O=C1C=CC(=O)C=C1` [BQ, 1,4-benzoquinone], the results for the “enzyme in the oxidized state during turnover” value on PeAAO [1] and at BaAAO [5] were 85%–92% and around 90%, respectively. Moreover, the Kd on BaAAO [2] was determined as 0.05 µM; on PeAAO [3], 27.1 µM. For the same compound, the “K d of alcohols higher than K d of BQ” value at BaAAO [2] (BaAAO) is listed as ≤ 15,000 fold. The ΔH was -21.4 kcal/mol at BaAAO [2] (BaAAO, ITC, 25 °C, 50 mM Tris/HCl, pH 7.0, error ±0.4) and -25.1 kcal/mol on PeAAO [3] (PeAAO, ITC, 25 °C, 50 mM Tris/HCl, pH 7.0, error ±0.4). For the same compound, the ΔG on BaAAO [2] (BaAAO, ITC, 25 °C, 50 mM Tris/HCl, pH 7.0, from K d) is -9.9 kcal/mol; on PeAAO [3] (PeAAO, ITC, 25 °C, 50 mM Tris/HCl, pH 7.0, from K d) it was -6.2 kcal/mol. In addition, the “–TΔS” value at BaAAO [2] (BaAAO, ITC, 25 °C, 50 mM Tris/HCl, pH 7.0, –TΔS = ΔG–ΔH) was 11.5 kcal/mol; at PeAAO [3] (PeAAO, ITC, 25 °C, 50 mM Tris/HCl, pH 7.0, –TΔS = ΔG–ΔH) it was 18.9 kcal/mol. For the same compound, the “reverse rate constant (k rev), y-axis intercept of reoxidation” value on PeAAO [4] (PeAAO) is 55 s⁻¹. In addition, the “second phase of reoxidation (k ox B→C)” value on PeAAO [4] (PeAAO reoxidized with 50 µM of BQ) fell in the range of 5 to 10 s⁻¹; at PeAAO [4] (PeAAO reoxidized with 100 µM of BQ), 15 to 20 s⁻¹. Also, the “first phase share of the total amplitude of reoxidation” value on PeAAO [4] (PeAAO, 50 µM of BQ) is on record as “more than 50%”; on PeAAO [4] (PeAAO, 100 µM of BQ) it was above 85%. Besides, the “k cat/K m(acceptor)” value on PeAAO [6] is 1,025 ± 154 s^−1mM^−1; on BaAAO [7], 450000 ± 70000 M⁻¹ s⁻¹; on BaAAO [8] it was 353000 ± 65000 M⁻¹ s⁻¹; on PeAAO [9], 722000 ± 64000 M⁻¹ s⁻¹.

The term Kd denotes the constant that tells how readily two partners part at equilibrium. Read a low Kd as a tighter complex.
